Numbers after ± are expanded uncertainties.
Assay: xn = mol fraction of the nth substance listed
Conditions: 101.3 kPa, Liquid, Vibrating tube method

COCCOCCOC [2,5,8-trioxanonane] + ClCCCl
mass density [kg/m3]
Conditions | 283.15 K | 288.15 K | 293.15 K | 298.15 K | 303.15 K | 308.15 K
x2 = 0 | – | 948.72 ± 0.23 | – | – | – | –
x2 = 0.0252 | 958.22 ± 0.25 | 953.25 ± 0.25 | 948.26 ± 0.25 | 943.26 ± 0.25 | 938.26 ± 0.25 | 933.23 ± 0.25
x2 = 0.0508 | 963.01 ± 0.24 | 958.01 ± 0.24 | 952.99 ± 0.24 | 947.97 ± 0.24 | 942.93 ± 0.24 | 937.88 ± 0.24
x2 = 0.0751 | 967.64 ± 0.24 | 962.62 ± 0.24 | 957.57 ± 0.24 | 952.52 ± 0.24 | 947.45 ± 0.24 | 942.36 ± 0.24
x2 = 0.1 | 972.47 ± 0.23 | 967.4 ± 0.23 | 962.33 ± 0.23 | 957.24 ± 0.23 | 952.14 ± 0.23 | 947.02 ± 0.23
x2 = 0.1502 | 982.62 ± 0.22 | 977.49 ± 0.22 | 972.35 ± 0.22 | 967.19 ± 0.22 | 962.02 ± 0.22 | 956.85 ± 0.22
x2 = 0.1999 | 993.12 ± 0.22 | 987.92 ± 0.22 | 982.7 ± 0.22 | 977.48 ± 0.22 | 972.24 ± 0.22 | 966.98 ± 0.22
x2 = 0.25 | 1004.25 ± 0.21 | 998.97 ± 0.21 | 993.69 ± 0.21 | 988.39 ± 0.21 | 983.08 ± 0.21 | 977.75 ± 0.21
x2 = 0.3002 | 1015.91 ± 0.21 | 1010.56 ± 0.21 | 1005.2 ± 0.21 | 999.83 ± 0.2 | 994.44 ± 0.2 | 989.03 ± 0.2
x2 = 0.3501 | 1028.01 ± 0.21 | 1022.59 ± 0.21 | 1017.14 ± 0.21 | 1011.69 ± 0.2 | 1006.21 ± 0.2 | 1000.72 ± 0.2
x2 = 0.4 | 1040.79 ± 0.22 | 1035.28 ± 0.21 | 1029.75 ± 0.21 | 1024.2 ± 0.21 | 1018.64 ± 0.2 | –
x2 = 0.45 | 1054.2 ± 0.22 | 1048.58 ± 0.22 | 1042.96 ± 0.21 | 1037.32 ± 0.21 | 1031.66 ± 0.21 | –
x2 = 0.5003 | 1068.49 ± 0.22 | 1062.78 ± 0.22 | 1057.05 ± 0.22 | 1051.31 ± 0.22 | 1045.56 ± 0.21 | –
x2 = 0.5499 | 1083.31 ± 0.23 | 1077.45 ± 0.23 | 1071.62 ± 0.22 | 1065.77 ± 0.22 | 1059.91 ± 0.22 | –
x2 = 0.5999 | 1098.98 ± 0.24 | 1093.07 ± 0.23 | 1087.13 ± 0.23 | 1081.17 ± 0.23 | 1075.19 ± 0.23 | –
x2 = 0.6501 | 1115.77 ± 0.25 | 1109.73 ± 0.24 | 1103.67 ± 0.24 | 1097.58 ± 0.24 | 1091.48 ± 0.24 | –
x2 = 0.7 | 1133.3 ± 0.26 | 1127.26 ± 0.25 | 1121.07 ± 0.25 | 1114.85 ± 0.25 | 1108.62 ± 0.24 | –
x2 = 0.75 | 1151.98 ± 0.27 | 1145.68 ± 0.27 | 1139.34 ± 0.26 | 1132.98 ± 0.26 | 1126.61 ± 0.26 | –
x2 = 0.8 | 1172.08 ± 0.28 | 1165.61 ± 0.28 | 1159.12 ± 0.28 | 1152.61 ± 0.27 | 1146.07 ± 0.27 | –
x2 = 0.8499 | 1193.31 ± 0.3 | 1186.69 ± 0.3 | 1180.04 ± 0.29 | 1173.37 ± 0.29 | 1166.67 ± 0.29 | –
x2 = 0.9 | 1216.25 ± 0.31 | 1209.44 ± 0.31 | 1202.6 ± 0.31 | 1195.74 ± 0.3 | 1188.86 ± 0.3 | –
x2 = 0.925 | 1228.27 ± 0.33 | 1221.36 ± 0.33 | 1214.42 ± 0.32 | 1207.47 ± 0.32 | 1200.48 ± 0.32 | –
x2 = 0.9494 | 1240.66 ± 0.34 | 1233.66 ± 0.34 | 1226.62 ± 0.33 | 1219.57 ± 0.33 | 1212.48 ± 0.33 | –
x2 = 0.975 | 1253.89 ± 0.34 | 1246.79 ± 0.34 | 1239.64 ± 0.34 | 1232.47 ± 0.33 | 1225.28 ± 0.33 | –

— the NIST ThermoML archive (doi:10.1021/je101361u)
